Assay results reported in patent publication US4141974A, “Veterinary method employing certain aureolic acid compounds” (Imperial Chemical Industries Limited, priority 1976, dated 1979).

What was measured:
pigs = experiment: Pig growth trial, 9 weeks (Example 11); format: in vivo
Description: Seventy-two pigs weighing approximately 20kg. each were allocated into 8 matched treatment groups of 9 pigs, on the basis of sex and live weight. Each treatment group was allocated to one particular diet, and each animal in each group was fed individually on its appropriate diet, accurately weighed according to a feeding scale based on live weight, and adjusted weekly. The daily live weight gain in gammes (DLWG) and food conversion ratio (FCR -- the ratio of kg. feed per kg. of live weight gain) were determined for each group at the end of a 9 week trial period.

chickens [1] = experiment: Chicken growth trial, 1-day old chickens, 6 days (Example 4); format: in vivo; details: for Mean final weight per bird: * significant at p<0.001
Description: (§1) Groups of 20 randomised 1-day old chickens were place in small floor pens, bedded with wood shavings and provided with automatic drinking fountains. The birds in 16 randomly chosen such pens were fed for 6 days on a nutritionally balanced control diet containing no known growth promoter, and the birds in other pens (four pens per treatment diet) were fed for the same period on the same basal diet to which the indicated weight of mixed mithramycins obtained as in Example 2 or 3, or a known chicken growth promoter, penicillin or nitrovin as a positive control, was added. At the end of the test period, the mean weight per bird in the control group and each test group was determined and the percentage weight increase for each test group as compared with the control group was calculated.

chickens [2] = experiment: Chicken growth trial, chromomycin A3 (Example 12); format: in vivo
Description: as §1, with “calculated. The following results were obtained:” for “calculated.”
The procedure described in Example 4 was repeated, using chromomycin A3, obtained from Takeda Chemical Industries Ltd., Osaka, Japan, instead of the mixed mithramycins.

chickens [3] = experiment: Chicken growth trial, magnesium chelate of Example 2 (Example 8); format: in vivo; details: * P<0.001
Description: Groups of 20 randomised 1-day old chickens were place in small floor pens, bedded with wood shavings and provided with automatic drinking fountains. […] At the end of the test period, the mean weight per bird in the control group and each test group was determined and the percentage weight increase for each test group as compared with the control group was calculated.

chickens [4] = experiment: Chicken growth trial, pen of 20 birds (Example 5); format: in vivo; details: for Mean final weight-20 birds: mean total weight of a pen of 20 birds
Description: as §1, with “calculated. The following results were obtained:” for “calculated.”
In a further growth trial, the procedure described in Example 4 was repeated. In this case, the weights are expressed as the mean total weight of a pen of 20 birds.

chickens [5] = experiment: Chicken growth trial, mixed mithramycins from Streptomyces argillaceus (Example 7); format: in vivo
Description: as §1, with “calculated. The following results were obtained:” for “calculated.”
The procedure described in Example 4 was repeated, using the mixed mithramycins obtained by culturing Streptomyces argillaceus A.T.C.C. 12956 in known manner, and the following results were obtained: […]

chickens [6] = experiment: Chicken growth trial, magnesium chelate of mithramycin A from S. argillaceus (Example 9); format: in vivo; details: * P<0.001
Description: The procedure described in Example 4 was repeated, using the magnesium chelate of mithramycin A, obtained in known manner from fermentation of S. argillaceus A.T.C.C.

discard cockerels = experiment: Growth trial in discard cockerels, 4 weeks (Example 10); format: in vivo, chicken; details: 10 ppm in basal diet
Description: as §1, with “calculated. The following results were obtained:” for “calculated.”
The procedure described in Example 4 was repeated using 4 pens each of 30 discard cockerels for each diet, and allowing the trial to run for 4 weeks.

[7] = 10 ppm in basal diet, nitrovin * p<0.001, chromomycin A3 *** p<0.05

COC(=O)N/N=C/c1c[n+]([O-])c2ccccc2[n+]1[O-] [carbadox]
FCR (food conversion ratio) (pigs; high copper diet, 20 ppm, * significant at p<0.05): 2.184 kg. feed per kg. of live weigh
DLWG (daily live weight gain) (pigs; high copper diet, 20 ppm, ** significant at p<0.01): 672.7 gammes
FCR (food conversion ratio) (pigs; low copper diet, 20 ppm): 2.292 kg. feed per kg. of live weigh
DLWG (daily live weight gain) (pigs; low copper diet, 20 ppm, * significant at p<0.05): 630.6 gammes

CC1(C)S[C@@H]2[C@H](NC(=O)Cc3ccccc3)C(=O)N2[C@H]1C(=O)O [penicillin]
% effect v. control (weight increase) (chickens [1]; 25 ppm in basal diet): 11.6%
Mean final weight per bird (chickens [1]; 25 ppm in basal diet): 42.57 g
% effect v. control (chickens [2]; 25 ppm in basal diet): 12.7%
Mean final weight per bird (chickens [2]; 25 ppm in basal diet, * significant at p<0.001): 46.73 g
% effect v. control (chickens [3]; 25 ppm in basal diet): 16.1%
Mean final weight per bird (chickens [3]; 25 ppm in basal diet): 47.95 g
% effect v. control (chickens [4]; 25 ppm in basal diet): 18.25%
Mean final weight-20 birds (chickens [4]; 25 ppm in basal diet): 876 g
% effect v. control (chickens [5]; 25 ppm in basal diet): 18.8%
Mean final weight per birds (chickens [5]; 25 ppm in basal diet): 47.6 g
% effect v. control (chickens [6]; 25 ppm in basal diet): 16.1%
Mean final weight per bird (chickens [6]; 25 ppm in basal diet): 47.95 g

CO[C@@H]1[C@H](O)C[C@@H](O[C@@H]2C[C@H](Oc3cc4cc5c(c(O)c4c(O)c3C)C(=O)[C@@H](O[C@H]3C[C@@H](O[C@H]4C[C@@H](O[C@H]6C[C@](C)(O)[C@@H](OC(C)=O)[C@H](C)O6)[C@H](O)[C@@H](C)O4)[C@H](O)[C@@H](C)O3)[C@H]([C@H](OC)C(=O)[C@@H](O)[C@@H](C)O)C5)O[C@H](C)[C@@H]2OC(C)=O)O[C@@H]1C [chromomycin A3]
% effect v. control (chickens [2]; 5 ppm in basal diet): 7.3%
Mean final weight per bird (chickens [2]; 5 ppm in basal diet, ** significant at p<0.01): 44.51 g
% effect v. control (chickens [2]; 10 ppm in basal diet): 5.4%
Mean final weight per bird (chickens [2]; [7]): 43.68 g

N=C(N)NN=C(/C=C/c1ccc([N+](=O)[O-])o1)/C=C/c1ccc([N+](=O)[O-])o1 [nitrovin]
% effect v. control (weight increase) (chickens [1]; 10 ppm in basal diet): 12.7%
Mean final weight per bird (chickens [1]; 10 ppm in basal diet): 42.99 g
% effect v. control (chickens [2]; 10 ppm in basal diet): 9.7%
Mean final weight per bird (chickens [2]; [7]): 45.46 g
% effect v. control (chickens [3]; 10 ppm in basal diet): 10.6%
Mean final weight per bird (chickens [3]; 10 ppm in basal diet): 45.67 g
% effect v. control (chickens [4]; 10 ppm in basal diet): 11.6%
Mean final weight-20 birds (chickens [4]; 10 ppm in basal diet): 826 g
Food conversion ratio (discard cockerels; ** significant at p<0.001): 1.800
Mean final weight per bird (discard cockerels; mixed mithramycins * significant at p<0.01, nitrovin unmarked): 339 g
DLWG (daily live weight gain) (pigs; high copper diet, 10 ppm): 579.2 gammes
FCR (food conversion ratio) (pigs; high copper diet, 10 ppm): 2.308 kg. feed per kg. of live weigh
DLWG (daily live weight gain) (pigs; low copper diet, 10 ppm): 567.0 gammes
FCR (food conversion ratio) (pigs; low copper diet, 10 ppm): 2.381 kg. feed per kg. of live weigh
% effect v. control (chickens [5]; 10 ppm in basal diet): 12.9%
Mean final weight per birds (chickens [5]; 10 ppm in basal diet): 45.2 g
% effect v. control (chickens [6]; 10 ppm in basal diet): 10.6%
Mean final weight per bird (chickens [6]; 10 ppm in basal diet): 45.67 g
